Experiments:
Type in all cases: biochemical
human sEH-FL (H) = target: T1, human sEH-FL (H) (Homo sapiens, UniProt P34913); experiment: PHOME-based hydrolase assay, full-length sEH; settings: hydrolase activity of the full-length sEH protein, PHOME substrate; mean ± SD, n = 3
T1 construct: The full-length human sEH was previously published by Lukin et al; made in house
T1 sequence (P34913 1-555): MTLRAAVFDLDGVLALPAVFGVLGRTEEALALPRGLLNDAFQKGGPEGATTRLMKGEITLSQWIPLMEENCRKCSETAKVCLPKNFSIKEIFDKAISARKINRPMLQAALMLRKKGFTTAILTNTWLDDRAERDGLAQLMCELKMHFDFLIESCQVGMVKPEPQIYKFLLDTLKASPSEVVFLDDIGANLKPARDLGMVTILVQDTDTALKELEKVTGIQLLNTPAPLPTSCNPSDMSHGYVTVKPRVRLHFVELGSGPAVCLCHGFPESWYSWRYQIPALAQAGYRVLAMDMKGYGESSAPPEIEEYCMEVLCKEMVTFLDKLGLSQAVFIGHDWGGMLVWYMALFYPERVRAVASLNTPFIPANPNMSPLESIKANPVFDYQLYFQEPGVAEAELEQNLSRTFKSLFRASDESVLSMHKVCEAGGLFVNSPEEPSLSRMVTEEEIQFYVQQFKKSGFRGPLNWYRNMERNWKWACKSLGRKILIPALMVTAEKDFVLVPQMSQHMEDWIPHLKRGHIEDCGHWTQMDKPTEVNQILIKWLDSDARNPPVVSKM
Method: The fluorescence-based sEH hydrolase activity assay was performed as described previously in a 96-well format with some minor modifications. In short, full-length sEH (3 nM final concentration for all tested proteins) was dissolved in hydrolase assay buffer (Bis-Tris buffer, pH 7) supplemented with 0.1 mg mL^–1 BSA as well as Triton-X 100 to a final concentration of 0.01%. Protein solution (89 μL) was incubated with 1 μL of different concentrations of compounds (final DMSO concentration 1%) for 30 min at rt. The reaction was started by addition of 10 μL of a cyano­(6-methoxy-2-naphthalenyl)­methyl 3-phenyloxiran-2-ylacetate (PHOME) solution (final concentration of 50 μM). Hydrolysis of the nonfluorescent substrate by sEH to release fluorescent 6-methoxynaphthaldehyde was measured (λex = 330 nm, λem = 465 nm) using a Tecan Infinite F200PRO plate reader. The reaction was monitored over a duration of 45 min (one point every minute). A blank control (no protein and no compound) and a positive control (no compound) were carried out as well. All measurements were performed in triplicate.

human sEH-FL (P) = target: T2, human sEH-FL (P) (Homo sapiens, UniProt P34913); experiment: FDP-based phosphatase assay, full-length sEH; settings: phosphatase activity of the full-length sEH protein, FDP substrate; mean ± SD, n = 3
T2 construct: The full-length human sEH was previously published by Lukin et al; made in house
T2 sequence (P34913 1-555): T1 sequence (P34913 1-555)
Method: (§1) The FDP assay was performed as published previously by Klingler et al. using frozen sEH-PD as well as full-length human, mouse, and rat sEH. In brief, the assay was performed in a black 96-well microplate in which 1 μL of compound in DMSO (or DMSO only in the case of the positive control) was mixed with 89 μL of protein solution (final concentration of 0.1 μM for sEH-PD, full-length human sEH, and full-length rat sEH and 0.01 μM for full-length mouse sEH) in phosphatase assay buffer (50 mM acetate, 10 mM MgCl2, pH 5.75) supplemented with 0.01% w/v Triton X-100. For the blank, assay buffer without protein was used. The plates were incubated at rt for 30 min to allow binding of the inhibitor. To start the reaction, 10 μL of FDP solution (10 μM final concentration) in assay buffer was added, and the fluorescence changes (λex = 485 nm, λem = 525 nm) were detected at 30 time points over the duration of 30 min using an Infinite F200 PRO plate reader (Tecan, Crailsheim, Germany). All samples were measured in triplicate. The percent inhibition was calculated relative to the activities of the blank well (without protein) and positive control well (without inhibitor).

rat sEH-FL (P) = target: T3, rat sEH-FL (P) (Rattus norvegicus, UniProt P80299); experiment: FDP-based phosphatase assay, full-length sEH; settings: phosphatase activity of the full-length sEH protein, FDP substrate; mean ± SD, n = 3
T3 construct: using frozen sEH-PD as well as full-length human, mouse, and rat sEH
T3 sequence (P80299 1-554): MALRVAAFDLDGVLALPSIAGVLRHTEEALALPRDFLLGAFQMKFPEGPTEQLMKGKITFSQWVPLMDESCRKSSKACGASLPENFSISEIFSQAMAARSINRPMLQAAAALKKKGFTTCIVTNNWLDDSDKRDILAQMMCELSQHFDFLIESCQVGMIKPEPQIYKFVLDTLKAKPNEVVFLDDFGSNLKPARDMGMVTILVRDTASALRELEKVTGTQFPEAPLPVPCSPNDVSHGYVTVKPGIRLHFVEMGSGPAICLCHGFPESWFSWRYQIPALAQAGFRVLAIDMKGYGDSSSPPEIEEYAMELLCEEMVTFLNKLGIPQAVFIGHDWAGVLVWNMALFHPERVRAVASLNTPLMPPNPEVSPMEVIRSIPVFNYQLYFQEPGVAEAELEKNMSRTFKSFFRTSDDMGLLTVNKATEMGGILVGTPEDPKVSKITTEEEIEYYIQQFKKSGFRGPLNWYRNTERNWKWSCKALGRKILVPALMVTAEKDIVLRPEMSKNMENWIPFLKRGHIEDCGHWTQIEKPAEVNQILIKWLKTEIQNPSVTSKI
Method: as §1

human sEH-NTD = target: T4, human sEH-NTD (Homo sapiens, UniProt P34913); experiment: FDP-based phosphatase assay, isolated N-terminal domain; settings: phosphatase activity of the isolated N-terminal domain, FDP substrate, pH 5.75; mean ± SD, n = 3
T4 construct: made in house
T4 sequence (P34913 1-224 limits assumed): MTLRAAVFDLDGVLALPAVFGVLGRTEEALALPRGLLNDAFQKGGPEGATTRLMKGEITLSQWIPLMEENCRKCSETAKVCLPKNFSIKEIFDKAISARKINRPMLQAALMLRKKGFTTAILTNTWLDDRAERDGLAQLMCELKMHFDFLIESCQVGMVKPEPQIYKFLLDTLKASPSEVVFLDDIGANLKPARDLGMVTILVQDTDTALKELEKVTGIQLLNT
Method: as §1

IC50 (human sEH-FL (H)): 9.5 ± 0.5 µM
IC50 (human sEH-FL (P)): 4 ± 1 µM
IC50 (rat sEH-FL (P)): 2.8 ± 2.2 µM
IC50 (human sEH-NTD): 0.058 ± 0.005 µM
Structure (SMILES): O=C(O)CCCc1nc(-c2ccc(Cl)c(Cl)c2)c(-c2ccccc2)o1 [Compound 2]

Source: article PMC13505187, “Fragment-Based Discovery of Fenamic Acids as Pan-Species Inhibitors of the Soluble Epoxide Hydrolase Phosphatase Domain” (ACS Chemical Biology, 2026)
